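Five compound concentrations were applied to cells in 96-well plates for 48 hours; endpoints were derived by simple linear interpolation of the resulting dose-response curve. Abbreviation: GI50, concentration required for 50% inhibition of growth. TGI marks complete inhibition of growth.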
System: HCT-116 colon
Test: growth of human tumour cells (NCI), 48 h

Row | Compound | TGI [µM] | GI50 [µM]
1 | C[C@@]1(O)CC[C@]2(C)C3CCCC3[C@H]12 (some centres undefined) | > 100 | –
2 | O=C1OCC2=C1C(c1cccc(Br)c1)c1cc3c(cc1N2CCO)OCCO3 (centres undefined) | 2.07 | 0.0595
3 | COc1ccc(Cn2c(Br)c3c(c2Br)-c2nc(N)sc2CC3)cc1 | 11.2 | 2.89
4 | CC(=O)[O-].CC(=O)[O-].O=C(N/N=C/c1cc(Cl)cc(Cl)c1O)c1ccncc1.[Cu+2] | > 100 | –
5 | O=C(Nc1nc(=S)[nH][nH]1)C(=O)C(C(=O)c1ccc2ccccc2c1)C1OC(=O)c2ccccc21 (centres undefined) | 27.6 | –
6 | Cc1nnc2ccnn2c1C | > 100 | > 100
7 | CCOC(=O)C1=C(C)N(NC(=O)Nc2ccccc2)C2(N)N(NC(=O)Nc3ccccc3)C(C)=C(C(=O)OCC)C12C(=O)OCC (centres undefined) | 80.2 | –
8 | Cn1cc(-c2cc3c(N4CCN(c5ncc([C@@](C)(N)c6ccc(F)cc6)cn5)CC4)ncnn3c2)cn1 | > 100 | 3.15
9 | O=C(O)CSc1n[nH]c(-c2ccccc2O)n1 | > 100 | –
10 | Cc1nc(-c2nc(C)c(C(=O)NNC(=O)C[n+]3ccccc3)s2)sc1C(=O)NNC(=O)C[n+]1ccccc1 | > 100 | –
11 | O=c1[nH]c(-c2ccccc2)nc2cc(Cl)ccc12 | > 100 | –
12 | Cc1ccc(S(=O)(=O)N2CCC2c2ccccc2)cc1 (centres undefined) | > 100 | –
13 | CCCOc1nc(N)c2cnn(C3CCCCO3)c2n1 (centres undefined) | > 100 | –
14 | C/C(CN1C(=O)c2ccccc2C1=O)=N\NS(=O)(=O)c1ccc(Cl)cc1 | > 100 | –
15 | C[C@@H]1CC[C@H]2C(C)(C)[C@H]3C[C@@]12CC[C@@]3(C)O | > 100 | –
16 | C=C(C)C(=O)O[C@@H]1C[C@@]2(C)O[C@@H]2C[C@H](O)/C(C)=C/[C@H]2OC(=O)C(=C)[C@@H]21 | > 100 | –

Row | Compound | TGI [µM] | GI50 [µM]
17 | C=C1C(=O)O[C@H]2[C@H]1CC/C(CNC(=O)c1cc3ccccc3[nH]1)=C\CC[C@@]1(C)O[C@@H]21 | 2.21 | 1
18 | Cc1cc2c(cc1C)[n+](=O)c(C(=O)c1ccccc1)c(C(F)F)n2[O-] | > 100 | 30.8
19 | Cc1ccc(NC2=C3CCCCC3OC2=O)cc1 (centres undefined) | > 100 | 66.1
20 | COc1cc2c(cc1OC)C(Cl)C(c1ccc(F)cc1)=C2Cl (centres undefined) | 25.6 | –
21 | CN(C)c1ccc(/C=N/NC(=S)Nc2ccccc2)cc1 | > 100 | –
22 | O=C1C(C(Nc2ccccc2)c2ccccc2)=C([O-])c2ccccc21.O=C1C(C(Nc2ccccc2)c2ccccc2)=C([O-])c2ccccc21.[Cu+2] (centres undefined) | > 100 | 12
23 | CN(C)CC1CCC/C1=N/OC(=O)c1ccccc1 (centres undefined) | > 100 | –
24 | CCOC(=O)C1Sc2ccccc2N=C1C (centres undefined) | > 100 | –
25 | COC1=CC(=O)C(C2(OC(C)C)OC(=O)C(Cl)=C2Cl)=CC1=O (centres undefined) | > 100 | –
26 | O=C(NC1C=CCC2C(=O)N(c3ccccc3)C(=O)C12)OCc1ccccc1 (centres undefined) | > 100 | –
27 | CCC(C)SC1SCC2C(=O)N(C)C3(CC3C)C(=O)OCC(NC(=O)c3nc4ccccc4cc3O)C(=O)NC(C)C(=O)N(C)C1C(=O)N(C)C1(CC1C)C(=O)OCC(NC(=O)c1nc3ccccc3cc1O)C(=O)NC(C)C(=O)N2C (centres undefined) | – | 2.88e-05
28 | Cc1[cH-]c(=O)n(-c2ccccc2)n1.[Au+].[Au].c1ccc([PH+](c2ccccc2)c2ccccc2)cc1.c1ccc([PH+](c2ccccc2)c2ccccc2)cc1 | 38.9 | 20.2
29 | CC1(C)CC(c2c[nH]c3ccccc23)=CC2=Nc3ccccc3C21O (centres undefined) | > 100 | –
30 | CN1C(=O)C(=O)N2c3ccc(Cl)cc3C3(c4ccccc4)N=CC12O3 (centres undefined) | 13.2 | –
31 | N#CCCC[Si]12OCCN(CCO1)CCO2 | > 100 | –
32 | O=C(/C=C/c1c(O)ccc2ccccc12)c1ccc([N+](=O)[O-])cc1 | 37.4 | –

System: OVCAR-4 ovarian
Test: growth of human tumour cells (NCI), 48 h

Row | Compound | TGI [µM] | GI50 [µM]
33 | C[C@@]1(O)CC[C@]2(C)C3CCCC3[C@H]12 (some centres undefined) | > 100 | –
34 | O=C1OCC2=C1C(c1cccc(Br)c1)c1cc3c(cc1N2CCO)OCCO3 (centres undefined) | > 50 | 0.131
35 | O=C(Nc1nc(=S)[nH][nH]1)C(=O)C(C(=O)c1ccc2ccccc2c1)C1OC(=O)c2ccccc21 (centres undefined) | 58.2 | –
36 | Cc1nnc2ccnn2c1C | > 100 | > 100
37 | CCOC(=O)C1=C(C)N(NC(=O)Nc2ccccc2)C2(N)N(NC(=O)Nc3ccccc3)C(C)=C(C(=O)OCC)C12C(=O)OCC (centres undefined) | > 100 | –
38 | Cn1cc(-c2cc3c(N4CCN(c5ncc([C@@](C)(N)c6ccc(F)cc6)cn5)CC4)ncnn3c2)cn1 | > 100 | 2.45
39 | O=C(O)CSc1n[nH]c(-c2ccccc2O)n1 | > 100 | –
40 | CN(C)C=Nc1nc(=O)n(C2CCC(CO)O2)cc1F (centres undefined) | > 100 | –
41 | O=c1[nH]c(-c2ccccc2)nc2cc(Cl)ccc12 | > 100 | –
42 | Cc1ccc(S(=O)(=O)N2CCC2c2ccccc2)cc1 (centres undefined) | > 100 | –
43 | CCCOc1nc(N)c2cnn(C3CCCCO3)c2n1 (centres undefined) | > 100 | –
44 | C/C(CN1C(=O)c2ccccc2C1=O)=N\NS(=O)(=O)c1ccc(Cl)cc1 | > 100 | –
45 | C[C@@H]1CC[C@H]2C(C)(C)[C@H]3C[C@@]12CC[C@@]3(C)O | > 100 | –
46 | COc1ccc(/C=C/COC(C)=O)cc1OC | > 100 | –
47 | C=C(C)C(=O)O[C@@H]1C[C@@]2(C)O[C@@H]2C[C@H](O)/C(C)=C/[C@H]2OC(=O)C(=C)[C@@H]21 | 78.9 | –
48 | Cc1ccc(-c2nc(N3CCNCC3)c3oc(-c4ccc(C)cc4)nc3n2)cc1 | 10.6 | 2.22
49 | [O-][Cl+3]([O-])([O-])[O-].[O]=[Ru]=[O].c1ccc(-c2ccccn2)nc1.c1ccc(-c2ccccn2)nc1 | > 100 | > 100
50 | C=C1C(=O)O[C@H]2[C@H]1CC/C(CNC(=O)c1cc3ccccc3[nH]1)=C\CC[C@@]1(C)O[C@@H]21 | 5.53 | 1.73
51 | Cc1cc2c(cc1C)[n+](=O)c(C(=O)c1ccccc1)c(C(F)F)n2[O-] | > 100 | 14.2
52 | Cc1ccc(NC2=C3CCCCC3OC2=O)cc1 (centres undefined) | > 100 | 43.2
53 | CN(C)c1ccc(/C=N/NC(=S)Nc2ccccc2)cc1 | > 100 | –
54 | CN(C)CC1CCC/C1=N/OC(=O)c1ccccc1 (centres undefined) | > 100 | –
55 | CCOC(=O)C1Sc2ccccc2N=C1C (centres undefined) | > 100 | –
56 | O=C(NC1C=CCC2C(=O)N(c3ccccc3)C(=O)C12)OCc1ccccc1 (centres undefined) | > 100 | –
57 | CCC(C)SC1SCC2C(=O)N(C)C3(CC3C)C(=O)OCC(NC(=O)c3nc4ccccc4cc3O)C(=O)NC(C)C(=O)N(C)C1C(=O)N(C)C1(CC1C)C(=O)OCC(NC(=O)c1nc3ccccc3cc1O)C(=O)NC(C)C(=O)N2C (centres undefined) | 0.0182 | 0.000187
58 | Cc1[cH-]c(=O)n(-c2ccccc2)n1.[Au+].[Au].c1ccc([PH+](c2ccccc2)c2ccccc2)cc1.c1ccc([PH+](c2ccccc2)c2ccccc2)cc1 | > 100 | 32.2
59 | CC1(C)CC(c2c[nH]c3ccccc23)=CC2=Nc3ccccc3C21O (centres undefined) | > 100 | –
60 | CN1C(=O)C(=O)N2c3ccc(Cl)cc3C3(c4ccccc4)N=CC12O3 (centres undefined) | 8.43 | –
61 | O=C(/C=C/c1c(O)ccc2ccccc12)c1ccc([N+](=O)[O-])cc1 | 36 | –
62 | CN1CCN(c2ccc(Nc3ncc(Cl)c(NC[C@@H]4CCCO4)n3)cc2)CC1 | 81.7 | 3.03

System: RXF 393 renal
Test: growth of human tumour cells (NCI), 48 h

Row | Compound | TGI [µM] | GI50 [µM]
63 | C[C@@]1(O)CC[C@]2(C)C3CCCC3[C@H]12 (some centres undefined) | > 100 | –
64 | O=C1OCC2=C1C(c1cccc(Br)c1)c1cc3c(cc1N2CCO)OCCO3 (centres undefined) | 0.0361 | 0.012
65 | COc1ccc(Cn2c(Br)c3c(c2Br)-c2nc(N)sc2CC3)cc1 | 5.05 | 1.97
66 | CC(=O)[O-].CC(=O)[O-].O=C(N/N=C/c1cc(Cl)cc(Cl)c1O)c1ccncc1.[Cu+2] | > 100 | –
67 | O=C(Nc1nc(=S)[nH][nH]1)C(=O)C(C(=O)c1ccc2ccccc2c1)C1OC(=O)c2ccccc21 (centres undefined) | 26.8 | –
68 | CCOC(=O)C1=C(C)N(NC(=O)Nc2ccccc2)C2(N)N(NC(=O)Nc3ccccc3)C(C)=C(C(=O)OCC)C12C(=O)OCC (centres undefined) | 22.4 | –
69 | Cn1cc(-c2cc3c(N4CCN(c5ncc([C@@](C)(N)c6ccc(F)cc6)cn5)CC4)ncnn3c2)cn1 | > 100 | 2.66
70 | O=C(O)CSc1n[nH]c(-c2ccccc2O)n1 | > 100 | –
71 | Cc1nc(-c2nc(C)c(C(=O)NNC(=O)C[n+]3ccccc3)s2)sc1C(=O)NNC(=O)C[n+]1ccccc1 | > 100 | –
72 | CN(C)C=Nc1nc(=O)n(C2CCC(CO)O2)cc1F (centres undefined) | > 100 | –
73 | O=c1[nH]c(-c2ccccc2)nc2cc(Cl)ccc12 | > 100 | –
74 | Cc1ccc(S(=O)(=O)N2CCC2c2ccccc2)cc1 (centres undefined) | > 100 | –
75 | CCCOc1nc(N)c2cnn(C3CCCCO3)c2n1 (centres undefined) | > 100 | –
76 | COc1ccc(/C=C/COC(C)=O)cc1OC | > 100 | –
77 | C=C(C)C(=O)O[C@@H]1C[C@@]2(C)O[C@@H]2C[C@H](O)/C(C)=C/[C@H]2OC(=O)C(=C)[C@@H]21 | > 100 | –
78 | Cc1ccc(-c2nc(N3CCNCC3)c3oc(-c4ccc(C)cc4)nc3n2)cc1 | 8.81 | 3.89
79 | [O-][Cl+3]([O-])([O-])[O-].[O]=[Ru]=[O].c1ccc(-c2ccccn2)nc1.c1ccc(-c2ccccn2)nc1 | > 100 | 39.1
